Measured values as given in patent US6548521B1, “Inhibitors of metazoan parasite proteases” (The Regents of the University of California, priority 1992, dated 2003).

These compounds were tested on Plasmodium falciparum clone from CDC/Indochina III (W-2) (assay: WRAIR in vitro antimalarial serial dilution assay ([3H]-hypoxanthine incorporation)). Conditions: not given.
Assay type: cell-based
Text: The Walter Reed Army Institute of Research (WRAIR) in vitro screens for intrinsic antimalarial activity are based on modifications of procedures described in the literature [Desjardins, R. E. et al. (1979) J.D. Antimicrobial Agents and Chemotherapy, 16(6):710-8]; Chulay et al. (1983) [Journal of Infectious Diseases 148(1):148-55]; Milhous, W. K. et al. (1985) [Antimicrobial Agents and Chemotherapy 27(4):525-30]. The system is directed to the assessment of the intrinsic activity against the erythrocytic asexual life cycle (blood schizontocides)]. A minimum of 10 mg of sample is generally submitted for initial testing. Two Plasmodium falciparum clones from CDC/Indochina III (W-2) and CDC/Sierra Leone I (D-6) [Oduola, A. M. et al. (1988) [Experimental Parasitology 67(2):354-60] are used for all assays. W-2 is resistant to chloroquine, quinine and pyrimethamine and susceptible to mefloquine. D-6 is resistant to mefloquine and susceptible to chloroquine, quinine and pyrimethamine.
The clones are maintained in continuous log-phase growth in RPMI-1640 medium supplemented with 6% washed human A+ erythrocytes, 25 mM Hepes, […] NaHCO3 and 10% heat inactivated A+ human plasma or albuMAX™ (lipid-rich bovine serum albumin, GIBCO, Grand Island, N.Y.). All cultures and assays are conducted at 37° C. under an atmosphere of 5% CO2 and 5% O2, with a balance of N2.
The preliminary screen uses D-6 diluted to a 0.2% parasitemia in a 1% hematocrit in folic acid free and p-aminobenzoic acid free RPMI-1640 and albuMAX™ (FF-CM). […] The compound is further diluted to a stock solution to 10 ml with FF-CM. This stock solution is kept at −70° C. until used. The clone is preexposed, in duplicate, at three concentrations (50,000 ng/ml, 5,000 ng/ml and 50 ng/ml) of the test compound for 48 hr in a 96-well microliter plate (MTP) using a Biomek® 1000 automated laboratory workstation (Beckman Instruments, Fullerton, Calif.). Each MTP contains chloroquine-containing controls to assess the relative activity of the unknown compound and to monitor the response of D-6.
After the preincubation, [^3H]-hypoxanthine is added to each well of the MTP to determine if the parasites can still replicate or repair DNA. After 66 hr of total incubation time, the MTP are frozen to lyse the erythrocytes and parasites. The parasite DNA is recovered by harvesting the lysate onto glass-fiber filters using a Mark II cell-harvester (Tomtec, Orange, Conn.). The radioactivity is counted on a 1205 Betaplate™ liquid scintillation counter (Wallac, Turku, Finland).
The serial dilution assay is conducted using the same assay conditions and stock solution of the compound used for the preliminary screen. Both the D-6 and the W-2 clones are used. The compound is diluted two-fold over 11 different concentration ranges with a starting concentration that is based on the preliminary screen. The IC50 is determined by a non-linear logistic dose response analysis (TableCurve™, Jandel Scientific, Corte Madera, Calif.). […] For each assay, the IC50 for each clone is determined against the known antimalarials chloroquine, mefloquine, artemisinin, quinine and pyrimethamine. These control values establish the unknown compound's relative parasite susceptibility profile compared to known antimalarials. IC50s can be similarly determined for drug-resistant isolates/clones from a wide variety of geographic locations.

| SMILES | antimalarial activity (in words) |
| --- | --- |
| O=C(/C=C/c1ccccc1O)c1ccc(O)cc1O [Compound 21] | activity similar to that of hydrazide derivative IV44A |
| COc1ccc(C(=O)/C=C/c2ccc([N+](=O)[O-])cc2)cc1OC [Compound 24] | poor activity |
| O=C(C=Cc1ccccc1)n1ccnc1 [Compound 48, cinnamoylimidazole, reference compound] | substantially no activity |

Same assay, conditions: Plasmodium falciparum, Table I, formula III; W2 clone (CDC/Indochina III); * run: chloroquine 0.23 μM; † run: chloroquine 0.2-0.4 μM

| IC50 [µM] | SMILES |
| --- | --- |
| 0.23 | CCN(CC)CCCC(C)Nc1ccnc2cc(Cl)ccc12 (stereo not drawn) [Chloroquine, chloroquine, reference compound] |

Same assay, conditions: Plasmodium falciparum, Table II, formula IV; * run: chloroquine 0.2-0.4 μM

| IC50 [µM] | SMILES |
| --- | --- |
| 0.2 to 0.4 | CCN(CC)CCCC(C)Nc1ccnc2cc(Cl)ccc12 (stereo not drawn) [Chloroquine, chloroquine, reference compound] |

Same assay, conditions: Plasmodium falciparum, Table III, formula V

| IC50 [µM] | SMILES |
| --- | --- |
| 0.2 to 0.4 | CCN(CC)CCCC(C)Nc1ccnc2cc(Cl)ccc12 (stereo not drawn) [Chloroquine, chloroquine, reference compound] |

Same assay, conditions: Plasmodium falciparum, read-out: WR, IC50 (μM), Table IV, formula VI

| IC50 [µM] | SMILES |
| --- | --- |
| 0.23 | CCN(CC)CCCC(C)Nc1ccnc2cc(Cl)ccc12 (stereo not drawn) [Chloroquine, chloroquine, reference compound] |

Same assay, conditions: Plasmodium falciparum; similar tests

| IC50 [µM] | SMILES |
| --- | --- |
| 0.2 to 0.4 | CCN(CC)CCCC(C)Nc1ccnc2cc(Cl)ccc12 (stereo not drawn) [Chloroquine, chloroquine, reference compound] |

Same assay, conditions: Plasmodium falciparum; similar tests; read-out: IC50

| IC50 [µM] | SMILES |
| --- | --- |
| 3.1 | COc1ccc(C(=O)/C=C/c2cccnc2)c(OC)c1 [Compound 44] |
| 20 | Cn1cc(/C=C/C(=O)c2ccc(-n3ccnc3)cc2)c2ccccc21 [Compound 56] |

Same assay, conditions: Table I, formula III; W2 clone (CDC/Indochina III); * run: chloroquine 0.23 μM; † run: chloroquine 0.2-0.4 μM

| IC50 [µM] | SMILES |
| --- | --- |
| 0.2 | CCN(CC)CCCC(C)Nc1ccnc2cc(Cl)ccc12 (stereo not drawn) [Chloroquine, chloroquine, reference compound] |

Same assay, conditions: Table I, formula III; W2 clone (CDC/Indochina III); * run: chloroquine 0.23 μM; † run: chloroquine 0.2-0.4 μM; read-out: IC50

| IC50 [µM] | SMILES |
| --- | --- |
| 3.9 | O=C(/C=C/c1ccccc1O)c1ccc(O)cc1O [Compound 21] |
| 19.5 | COc1ccc(C(=O)/C=C/c2ccc(Cl)cc2Cl)cc1OC [Compound 38] |
| 3.6 | O=C(/C=C/c1ccc(Cl)cc1)c1ccc(Cl)cc1Cl [Compound 18] |
| 0.39 | COc1ccc(C(=O)/C=C/c2cccc(Cl)c2Cl)cc1OC [Compound 2] |
| 0.9 | O=C(/C=C/c1cc(Cl)cc(Cl)c1)c1ccc(Cl)cc1Cl [Compound 8] |
| 5.8 | COc1ccc(C(=O)/C=C/c2ccccc2Cl)c(OC)c1 [Compound 23] |
| 6.9 | COc1ccccc1/C=C/C(=O)c1ccccc1O [Compound 25] |
| 14.7 | O=C(/C=C/c1ccccc1O)c1ccccc1O [Compound 34] |
| 0.47 | COc1ccc(C(=O)/C=C/c2ccc(F)c(F)c2)c(OC)c1 [Compound 4] |
| > 148 | COc1ccc(C(=O)/C=C/c2cc(Cl)cc(Cl)c2)c(OC)c1 [Compound 43] |
| 1.9 | COc1ccc(/C=C/C(=O)c2cc(Cl)ccc2Cl)c(OC)c1 [Compound 12] |
| 109 | COc1ccc(C(=O)/C=C/c2ccc(F)cc2F)cc1OC [Compound 42] |
| 8.8 | COc1ccc(C(=O)/C=C/c2cc(Cl)cc(Cl)c2)cc1OC [Compound 30] |
| 77 | O=C(/C=C/c1cccc(O)c1)c1ccccc1O [Compound 41] |
| 1.4 | COc1ccc(C(=O)/C=C/c2ccc(N(C)C)cc2)c(OC)c1 [Compound 11] |
| 5.9 | COc1ccc(C(=O)/C=C/c2ccc([N+](=O)[O-])cc2)cc1OC [Compound 24] |
| 0.77 | COc1ccc(C(=O)/C=C/c2ccc(F)cc2F)c(OC)c1 [Compound 7] |
| 10.1 | O=C(/C=C/c1ccccc1)c1ccc(O)c(O)c1O [Compound 31] |
| 0.74 | COc1ccc(C(=O)/C=C/c2cccc(Cl)c2)c(OC)c1 [Compound 6] |
| 31.7 | O=C(/C=C/c1ccc(Cl)cc1)c1ccc(Cl)c(Cl)c1 [Compound 40] |

| IC50 [µM] | SMILES |
| --- | --- |
| 16.1 | COc1ccc(C(=O)/C=C/c2ccc(F)c(F)c2)cc1OC [Compound 35] |
| 11.1 | COc1ccc(/C=C/C(=O)c2ccc(F)cc2F)c(OC)c1 [Compound 32] |
| 2.4 | COc1ccc(C(=O)/C=C/c2c(Cl)cccc2Cl)c(OC)c1 [Compound 14] |
| 8.6 | COc1ccc(C(=O)/C=C/c2c(OC)cccc2OC)c(OC)c1 [Compound 29] |
| 0.42 | COc1ccc(C(=O)/C=C/c2ccc(Cl)cc2Cl)c(OC)c1 [Compound 3] |
| 7.4 | O=C(/C=C/c1ccc(O)cc1)c1ccc(O)cc1O [Compound 26] |
| 4.2 | COc1ccc(C(=O)/C=C/c2c(OC)cccc2OC)cc1OC [Compound 22] |
| 14.6 | O=C(/C=C/c1ccc(Cl)cc1Cl)c1ccc(Cl)c(Cl)c1 [Compound 33] |
| 8.1 | COc1ccc(C(=O)/C=C/c2c(F)cccc2F)c(OC)c1 [Compound 28] |
| 23 | O=C(/C=C/c1ccc(O)cc1)c1ccccc1O [Compound 39] |
| 16.6 | COc1ccc(C(=O)/C=C/c2ccc(Cl)cc2)cc1OC [Compound 37] |
| 3.6 | COc1ccc(/C=C/C(=O)c2ccc(OC)cc2OC)c(OC)c1 [Compound 17] |
| 3.6 | O=C(/C=C/c1ccccc1)c1ccc(O)cc1O [Compound 19] |
| 0.96 | COc1ccc(C(=O)/C=C/c2ccccc2OC)c(OC)c1 [Compound 9] |
| 3.2 | COc1ccc(/C=C/C(=O)c2ccc(Cl)c(Cl)c2)c(OC)c1 [Compound 16] |
| 1.3 | COc1ccc(C(=O)/C=C/c2cc(F)ccc2F)c(OC)c1 [Compound 10] |
| 0.63 | COc1ccc(C(=O)/C=C/c2ccc(Cl)cc2)c(OC)c1 [Compound 5] |
| 2 | COc1ccc(C(=O)/C=C/c2c(F)cccc2F)cc1OC [Compound 13] |
| 16.4 | COc1ccc(/C=C/C(=O)c2ccccc2O)cc1OC [Compound 36] |
| 7.9 | COc1ccc(C(=O)/C=C/c2c(Cl)cccc2Cl)cc1OC [Compound 27] |

| SMILES | IC50 [µM] |
| --- | --- |
| COc1ccc(/C=C/C(=O)c2ccc(Cl)cc2Cl)c(OC)c1 [Compound 20] | 3.8 |

Same assay, conditions: Table II, formula IV; * run: chloroquine 0.2-0.4 μM

| IC50 [µM] | SMILES |
| --- | --- |
| 0.2 | CCN(CC)CCCC(C)Nc1ccnc2cc(Cl)ccc12 (stereo not drawn) [Chloroquine, chloroquine, reference compound] |

Same assay, conditions: Table III, formula V; read-out: IC50

| IC50 [µM] | SMILES |
| --- | --- |
| 3.2 | O=C(/C=C/c1ccc(F)cc1F)c1ccc(-n2ccnc2)cc1 [Compound 53] |
| 18 | CN(C)c1ccc(/C=C/C(=O)c2ccc(-n3ccnc3)cc2)cc1 [Compound 55] |
| 1.8 | O=C(/C=C/c1cccc(Cl)c1Cl)c1ccc(-n2ccnc2)cc1 [Compound 51] |
| 7.8 | O=C(/C=C/c1c(F)cccc1F)c1ccc(-n2ccnc2)cc1 [Compound 54] |
| 1.9 | O=C(/C=C/c1c(Cl)cccc1Cl)c1ccc(-n2ccnc2)cc1 [Compound 52] |
| 0.72 | O=C(/C=C/c1ccc(Cl)cc1Cl)c1ccc(-n2ccnc2)cc1 [Compound 49] |
| 0.91 | O=C(/C=C/c1cc(Cl)cc(Cl)c1)c1ccc(-n2ccnc2)cc1 [Compound 50] |

Same assay, conditions: read-out: IC50

| SMILES | IC50 [µM] |
| --- | --- |
| COc1ccc(/C=C/C(=O)c2ccccn2)c(OC)c1 [Compound 45] | 4.6 |
| O=C(/C=C/c1ccc(Cl)c([N+](=O)[O-])c1)c1ccccn1 [Compound 47] | 8.2 |
| COc1ccc(/C=C/C(=O)c2cccnc2)c(OC)c1 [Compound 46] | 7.2 |
| O=C(C=Cc1ccccc1)n1ccnc1 [Compound 48, cinnamoylimidazole, reference compound] | > 253 |

Same assay, conditions: similar tests; read-out: IC50

| IC50 [µM] | SMILES |
| --- | --- |
| 0.38 | COc1ccc(C(=O)/C=C/c2cccc(Cl)c2Cl)c(OC)c1 [Compound 1] |
| 2.8 | COc1ccc(C(=O)/C=C/c2cccc(F)c2F)c(OC)c1 [Compound 15] |
